Experiment in all cases: DTP human tumour cell line panel, 48 h
The test system of test [1] is SW-620 colon.
Test [2] has as its system HCT-116 colon.
The test system of test [3] is SF-295 CNS.
Test [4] relates to UACC-62 melanoma.
The test system of test [5] is SF-539 CNS.
Test [6] deals with MOLT-4 leukemia.
Test [7] relates to HOP-92 NSCLC.
The test system of test [8] is 786-0 renal.
For test [9], the system named is NCI-H23 lung.
Test [10] concerns SK-MEL-28 melanoma.

“And” between values parts separate entries of the source, which are not always exact repeats. Equal values may be shown once.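 Compound exposure: 48 hours, 5 concentrations, 96-well plates. The concentration for 50% growth inhibition is given as GI50. TGI is the concentration that stops growth completely.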 Where only a bound is given, the exact number is not on record here.

By GI50 is commonly meant the concentration that inhibits growth by half. What is called TGI is the concentration at which net growth stops. Read a high TGI as lower sensitivity of the cells.

Take `C[C@@H]1CN(Cc2ccc(F)cc2)[C@@H](C)CN1C(=O)c1cc2c(C(=O)C(=O)N(C)C)cn(C)c2cc1Cl`: the GI50 was 24 µM in test [1]; 21.6 µM in [2]; 14.9 µM in test [3]; 5.86 µM in test [4]; 14.9 µM in [5]; 17.9 µM in test [6]. Further, the GI50 in [7] was 19.4 µM; in test [8], 21.2 µM; in test [9] it was 19.6 µM; in test [10] it was 13 µM. Moreover, the concentration for total growth inhibition (TGI) in test [1] is above 84.9 µM; in test [2], above 71.9 µM; in test [3], 36.7 µM; in test [4], 23.9 µM; in [5] it was 29.7 µM; in test [6] it was 45.5 µM. Also, the concentration for total growth inhibition (TGI) was 56.5 µM in test [7], 67.1 µM in test [8], 57.2 µM in test [9] and 35.2 µM in [10].
Turning to `COc1cc(C(=O)C/C(CCC(=O)Nc2ccccc2[N+](=O)[O-])=N\NC(N)=O)ccc1O`, the TGI in test [1], in test [2], in [3], in test [4], in test [5] and in test [6] was above 100 µM in each case. The total growth inhibition concentration (TGI) in [7], in test [8], in [9] and in [10] was above 100 µM each time.
`CNCCCNCCCCNCCCN1C(=O)c2ccc3c4c(ccc(c24)C1=O)C(=O)N(CCCNCc1ccccc1OC)C3=O`: the GI50 in test [1] is 2.16 µM; in test [2], 2.04 µM; in test [3] it was 1.33 µM; in test [4] it was 0.711 µM; in test [5] it was 2.04 µM; in test [6] it was 5.21 µM. Also, the GI50 was 2.21 µM in test [7], 3.36 µM in test [8], 2.99 µM in test [9] and 1.4 µM in test [10]. Moreover, the TGI in [1] came out at 15.8 µM; in test [2], 21.1 µM; in test [3], 12.8 µM; in test [4] it was 5.06 µM; in test [5] it was 6.82 µM; in test [6], 38.5 µM. Besides, the TGI was determined as 18.9 µM in test [7], 29.8 µM in test [8], 19.1 µM in test [9] and 10.1 µM in test [10].
On to `N#CC(=C1C=CC(=NO)C=C1)c1ccc(Cl)cc1`, for which the concentration for total growth inhibition (TGI) in test [1] stood at 24 µM; in [2] it was 21.6 µM; in test [3], 48 µM; in [4] it was 21 µM; in [5], 25.4 µM; in test [6], 39.5 µM. The concentration for total growth inhibition (TGI) in test [7] worked out at 44.8 µM; in test [8], 5.69 µM; in [9], 75.3 µM; in test [10] it was 37.9 µM.
Regarding `c1cnn2ncc(-c3ccnc(NCCCN4CCOCC4)n3)c2c1`, the GI50 in test [1] is 6.66 µM; in test [2], 7.25 µM; in test [3], 5.81 µM; in test [4], 5.86 µM; in [5] it was 6.18 µM; in [6], 9.61 µM. For the same compound, the GI50 in test [7] is 5.08 µM; in [8], 8.63 µM; in test [9], 7.87 µM; in test [10], 5.65 µM. For the same compound, the TGI is above 25 µM in test [1]; above 25 µM in [2]; above 20.4 µM in test [3]; 18.4 µM in [4]; 18.7 µM in test [5]; above 25 µM in [6]. In addition, the concentration for total growth inhibition (TGI) is 17.4 µM in test [7], above 25 µM in [8], above 25 µM in test [9] and above 18 µM in test [10].
With `O=C1c2cccnc2C(=O)c2c1c(C(=O)NCCCN1CCCCC1)c1ccccn21`, the GI50 is 0.471 µM in test [1]; 0.337 µM in [2]; 0.845 µM in test [3]; 0.624 µM in [4]; 1.47 µM in [5]; 0.867 µM in test [6]. Further, the GI50 in [7] is 2.33 µM; in test [8], 1.18 µM; in test [9] it was 0.436 µM; in [10] it was 3.15 µM. Also, the TGI in test [1] was 2.14 µM; in [2], 1.22 µM; in test [3] it was 8.45 µM; in test [4] it was 2.51 µM; in test [5], 3.07 µM; in [6], above 100 µM. Besides, the concentration for total growth inhibition (TGI) in test [7] came to 4.9 µM; in test [8] it was 8.06 µM; in test [9], 2.75 µM; in test [10] it was 10.5 µM.
Regarding `C=CC(=O)Nc1cccc(Oc2nc(Nc3ccc(N4CCN(C)CC4)cc3)nc3ccsc23)c1`, the GI50 is 2.07 µM and 1.92 µM in test [1]; 1.48 µM and 1.81 µM in test [2]; 7.68 µM in test [3]; 1.59 µM and 1.74 µM in [4]; 1.62 µM and 1.75 µM in test [5]; 2.53 µM and 1.72 µM in [6]. The GI50 in test [7] was 0.801 µM and 1.81 µM; in [8], 1.3 µM and 2.07 µM; in test [9], 4.27 µM and 9.48 µM; in test [10], 1.87 µM and 1.89 µM. The total growth inhibition concentration (TGI) in test [1] was 4.61 µM and 4.07 µM; in test [2], 2.93 µM and 3.33 µM; in [3], > 10 µM and 21.3 µM; in test [4], 3.17 µM and 3.67 µM; in [5], 3.02 µM and 3.23 µM; in test [6] it was 7.08 µM and 5.53 µM. For the same compound, the TGI in test [7] is 6.47 µM and 4.97 µM; in [8] it was 3.25 µM and 4.62 µM; in test [9], > 10 µM and 36.4 µM; in test [10] it was 3.49 µM and 3.71 µM.
In the case of `NC(=O)c1csc(C2OC(CO)C(O)C2O)n1` (stereo not drawn), the GI50 in [1] is 30.6 µM; in test [3], > 43.9 µM and 13.6 µM; in test [4] it was above 79.7 µM; in test [5], 47.9 µM; in [6] it was 17.8 µM; in test [8] it was 15.5 µM. Besides, the GI50 was 52.3 µM in test [9]; > 80.6 µM and 17.2 µM in [10]. Further, the total growth inhibition concentration (TGI) is 5900 µM in test [1]; 6870 µM in test [2]; above 8180 µM in [3]; 4960 µM in [4]; 3590 µM in [5]; 3600 µM in test [6]. Moreover, the total growth inhibition concentration (TGI) in test [7] was found to be 1300 µM; in [8], 3460 µM; in test [9], 5250 µM; in [10] it was 1690 µM.

For the origin of these results see PubChem BioAssay (NCI).
